Counter-ions that a name gives are not always drawn.
Key:
NMDA receptor channel [1] = assay: [3H]MK-801-receptor association kinetics, repeatedly washed rat cerebral cortex membranes; type: binding
Protocol: (§1) Binding assays were performed in triplicate at 25° C. with repeatedly washed rat cerebral cortex membranes (80 μg protein) as described in Biochem. ibid. Assays were carried out in the absence or in the presence of 10^-4 M AP-5, or in the presence of 10 μM MgCl2 together with 1 μM L-glutamate and 1 μM glycine. Nonspecific binding was determined in samples containing 10^-4 M PCP. Data were expressed as the specific binding of [^3 H]MK-801 and analyzed according to the two-step binding model of interactions between noncompetitive blockers and the NMDA receptor channel. The model assumes a first order diffusion of the ligand from the outside into the interior of the channel, followed by association of the ligand with its receptor sites. Under the two extreme conditions employed here, viz., binding of [^3 H]MK-801 in the presence of agonists (unlimited diffusion) and in the absence of agonists (limited diffusion) the time courses of receptor occupation should respectively follow pseudo first order (eq. 1) and first order (eq. 2) kinetics:
([RL]eq-[RL])/[RL]eq≡exp.-(k1k2[L]/kb -k- 1)t eq. 1
1-{Kd [RL]/[L](RT ]-[RL ]}=exp.-Kb t eq. 2
where L, RT, RLeq and RL are respectively the ligand, the total number of binding sites, the bound ligand at equilibrium and at time t. ka and kb are the forward and background diffusion constants; k1 and k- 1 are the second order on-rate and the first order off-rate constants for the binding process. The overall equilibrium binding constant (Kd) is given by K- 1·kb /k1·k2.
FIG. 1A illustrates the time course of association of [^3 H] 801 (5 nM) with the NMDA receptor channel. Binding was determined at 25° C. as a function of time in the absence and in the presence of glutamate and glycine or in the presence of AP-5; whereas 1B illustrates the observed time constants (Kobs) derived from the pseudo first order plots of the association of 2, 5 and 8.6 nM [^3 H] 801 in the presence of glutamate and glycine plotted as a function of the ligand concentration. FIG. 1C is a first order plot (eq. 2) of [^3 H] 801-receptor association in the absence of agonists determined with ligand concentrations of 2 nM and 8.6 nM.

NMDA receptor channel [2] = assay: Equilibrium binding of [3H]MK-801 (Scatchard), rat cerebral cortex membranes; conditions: for Kd: 4 hr at 25° C., read-out: Kd determined at equilibrium
Protocol: as §1
FIG. 2 left illustrates the equilibrium binding of [^3 H] 801. Binding of [^3 H] 801 as a function of its concentration was assayed after incubation for 4 hr at 25° C. in the absence or in the presence of glutamate and glycine. Also shown are data for [^3 H] 801 binding to the receptor measured after their incubation for 3 hr followed by an additional 1 hr of incubation in the presence of 100 μM AP-5. Data are expressed in the form of Scatchard plot.

NMDA receptor channel [3] = assay: Dissociation of [3H]MK-801-receptor complexes, initiated by 100 μM unlabeled PCP; type: binding, rat
Protocol: as §1
Samples were incubated at 25° C. with 8 nM [^3 H] 801 for 2 hr. The dissociation reaction was initiated by the addition of 100 μM unlabeled PCP. […] Reactions were terminated either immediately (zero time) or at the indicated times. Bo --amount of [^3 H]MK-801 bound at zero time. Bt --amount of [^3 H] 801 bound at time t.

[4] = 5 nM ligand, with glutamate and glycine, 25° C.
[5] = presence of glutamate and glycine

Compound: C[C@]12N[C@H](Cc3ccccc31)c1ccccc12 [[^3 H]MK-801, (+) 5 methyl-10,11 dihydro-5H-dibenzo[a,d]cyclohepten-5,10-imine maleate]
- incubation time to reach equilibrium (NMDA receptor channel [1]; 5 nM ligand, absence of exogenous agonists, 25° C.): > 6 h
- association t1/2 (NMDA receptor channel [1]; [4]): ~7 min
- time to approach equilibrium (NMDA receptor channel [1]; [4]): 45 to 60 min
- half times of the association reactions (NMDA receptor channel [1]; absence of exogenous agonists, did not vary with ligand concentration): 60 to 70 min
- apparent off-rate time constant (k-1) from association (NMDA receptor channel [1]; presence of glutamate and glycine (FIG. 1B)): 0.075 min⁻¹
- Kd (NMDA receptor channel [1]; presence of glutamate and glycine, read-out: kinetically derived dissociation constant (Kd), ratio of off-rate and on-rate constants): 4.8 nM
- increase in ligand-receptor binding immediately after onset of binding (NMDA receptor channel [1]; with glutamate and glycine vs control without): ~ 9 times that of the control
- Kd (NMDA receptor channel [2]; absence of glutamate and glycine): 2.1 nM
- Kd (NMDA receptor channel [2]; [5]): 4.2 nM
- dissociation rate constant (NMDA receptor channel [3]; [5]): 0.1 min⁻¹

Compound: N[C@H](CCCP(=O)(O)O)C(=O)O [AP-5, D(-)2-amino-5-phosphovaleric acid]
- effect on rate of [3H]MK-801-receptor association (NMDA receptor channel [1]; AP-5 (10^-4 M) by itself, compared to control level): decreases the rates
- effect on equilibrium binding of preequilibrated [3H]MK-801-receptor complexes (NMDA receptor channel [2]; 3 hr incubation, then 1 hr with 100 μM AP-5): did not alter the equilibrium binding
- effect on rate of [3H]MK-801-receptor dissociation (NMDA receptor channel [3]; 100 μM AP-5 by itself, compared to control level): decreases the rates
